Laboratory results published in US20260083761A1, “PHARMACEUTICAL COMPOSITION FOR TREATING BRAIN DISEASE, NEURONAL MIGRATION PROMOTER, AND USE THEREOF” (PUBLIC UNIVERSITY CORPORATION NAGOYA CITY UNIVERSITY, priority 2022, published 2026).

Key:
[1] = tested on: V-SVZ-derived new neurons co-cultured with BV2 cells; assay: Experiment 10: co-culture of V-SVZ-derived new neurons with LPS-stimulated BV2 cells; PSA signal and time-lapse imaging; format: cell-based, mouse; details: inhibitor final concentration 1 mM, vs PBS (LPS+) and control (LPS−)
[2] = tested on: new neurons migrating to the brain injury site; assay: Experiment 13: Zanamivir in common marmosets with brain injury; PSA-NCAM and Dcx immunostaining; format: in vivo, common marmoset (Callithrix jacchus); details: common marmoset, 50 mg/kg i.p. for 21 days from day 7 after injury, fixed 28 days after injury
[3] = target: T1, Neu4 (Homo sapiens, UniProt Q8WWR8); details: human neuraminidases; reported; cited from earlier work
T1 sequence (Q8WWR8 1-496 isoform Q8WWR8-2): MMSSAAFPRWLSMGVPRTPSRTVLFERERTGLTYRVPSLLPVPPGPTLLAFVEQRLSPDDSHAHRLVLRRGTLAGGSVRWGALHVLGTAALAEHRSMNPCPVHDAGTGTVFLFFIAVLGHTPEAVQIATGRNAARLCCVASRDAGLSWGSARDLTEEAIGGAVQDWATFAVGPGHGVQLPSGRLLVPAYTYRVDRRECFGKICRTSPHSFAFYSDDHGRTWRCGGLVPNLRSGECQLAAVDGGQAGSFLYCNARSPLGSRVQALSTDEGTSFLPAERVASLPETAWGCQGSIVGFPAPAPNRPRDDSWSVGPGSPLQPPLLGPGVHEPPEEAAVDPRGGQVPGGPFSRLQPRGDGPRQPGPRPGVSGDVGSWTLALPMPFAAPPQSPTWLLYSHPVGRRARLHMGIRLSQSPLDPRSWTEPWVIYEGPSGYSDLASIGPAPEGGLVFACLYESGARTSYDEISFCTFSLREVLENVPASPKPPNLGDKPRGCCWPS

[4] = tested on: V-SVZ-derived neurons; assay: Experiment 12: Zanamivir in Nestin-CreERT2;NSE-DTA mice with new neurons removed; FFT and double-positive cells; format: in vivo, mouse; details: Nestin-CreERT2;NSE-DTA group, unlike NSE-DTA group; Zanamivir 50 mg/kg i.p. for 14 days from day 7 after injury; FFT 14 days after end of administration
[5] = target: T2, Neu3 (Homo sapiens, UniProt Q9UQ49); details: human neuraminidases; reported; cited from earlier work
T2 sequence (Q9UQ49 1-461 isoform Q9UQ49-2): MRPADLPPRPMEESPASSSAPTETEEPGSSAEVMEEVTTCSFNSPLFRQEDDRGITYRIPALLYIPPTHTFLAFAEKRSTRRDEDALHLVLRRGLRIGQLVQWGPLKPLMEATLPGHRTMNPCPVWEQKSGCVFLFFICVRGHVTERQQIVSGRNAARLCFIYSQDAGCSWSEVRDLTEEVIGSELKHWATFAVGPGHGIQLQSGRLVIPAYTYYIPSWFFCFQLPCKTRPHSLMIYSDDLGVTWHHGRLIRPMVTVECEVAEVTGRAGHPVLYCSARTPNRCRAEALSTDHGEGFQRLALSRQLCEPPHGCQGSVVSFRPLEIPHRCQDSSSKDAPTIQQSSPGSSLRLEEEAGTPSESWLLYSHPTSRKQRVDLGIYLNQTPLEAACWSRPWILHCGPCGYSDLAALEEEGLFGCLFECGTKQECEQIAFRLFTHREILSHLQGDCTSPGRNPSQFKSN

SMILES	PSA signal intensity [1]	localization of new neurons (distance of Dcx-positive cells from the injury site) ([2]; vs control)	PSA signal intensity of new neurons localized in the striatum on the injury side ([2]; vs non-administration control)	inhibitory effect on human Neu4 [3]	left-side slipping-off rate in the FFT [4]	inhibitory effect on human Neu3 [5]
CC(=O)N[C@H]1[C@H]([C@H](O)[C@H](O)CO)OC(C(=O)O)=C[C@@H]1O [DANA, 2,3-dehydro-2-deoxy-N-acetylneuraminic acid]	maintained					
CC(=O)N[C@H]1[C@H]([C@H](O)[C@H](O)CO)OC(C(=O)O)=C[C@@H]1N=C(N)N [Zanamivir]	maintained	localized closer to the injury site	maintain	inhibitory effect has been reported	no improvement	inhibitory effect has been reported
